Reference: US20130005678A1, “Methods and Compositions for Treating or Ameliorating Cancer Using Gemcitabine-5'-Elaidate” (CLAVIS PHARMA ASA, priority 2010, published 2013)

Tests used:
[1] = test system: CCRF-CEM human leukemia cell line; experiment: Triphosphate accumulation and retention in CCRF-CEM cells; type: cell-based
Excerpt: Drugs: Gemcitabine-5′-elaidate was provided by Clavis Pharma (Oslo, Norway), tetra hydro uridine (THU) was from Calbiochem (Merck, Darmstadt, Germany), dipyridamole and ara-C were from Sigma-Aldrich (St. Louis, Mo., USA) and dFdC was from Eli-Lilly (Indianapolis, Ind., USA). The radioactively labeled drugs were obtained from Moravek (Brea, Calif., USA); the drugs were labeled with tritium on the 5-C site of the base. A mix of radioactive and non-radioactive compounds was made for exposure of cells; dFdC and CP-4126 were used at a final concentration of 8.9 μM and a specific activity of 586 and 391 mCi/mmol, respectively.
Cell lines: For the experiments the CCRF-CEM human leukemia cell line and its dCK negative variant (CEM/dCK−) were used. The cell lines were cultured in RPMI medium (BioWhittaker, Verviers, Belgium) supplemented with 10% fetal calf serum (PAA laboratories, Pasching, Austria) and HEPES buffer (BioWhittaker). Of the nucleoside influx transporters, the CEM cell line only expresses the equilibrative nucleoside transporter (hENT) and not the concentrative nucleoside transporter (hCNT). Belt et al. Adv. Enzyme Regul., 1993, 33, 235-52. Dipyridamole (DP) was used to inhibit the influx of the drugs by hENT. In order to get a clean picture, THU was also added to inhibit deamination of ara-C and dFdC.
Triphosphate accumulation: Cells were treated with 1 and 10 μM of dFdC, while for the lipophilic analogs 10 and 100 μM was used. The cells were incubated for 60 minutes and retention of the triphosphates was investigated after 60 and 120 minutes incubation in drug-free medium. Dipyridamole was added to inhibit drug influx by the hENT transporter. After incubation the cell pellet was resuspended in ice-cold PBS and incubated for 20 minutes at 4° C. with 40% trichloroacetic acid. After centrifugation (10,000 g, 10 min, 4° C.) the supernatant was treated with a 2-fold excess of trioctylamine/1,1,2-trichlorotrifluorethane (1:4) and spun down (10,000 g, 1 min) and the aqueous phase was stored at −20° C. until analysis by HPLC on a Whatman Partisphere SAX column (GE healthcare, Chalfont St. Giles, UK) using gradient (dFdC-TP) elution as described earlier. Noordhuis et al., Leuk. Res., 1996, 20, 127-34; Ruiz van Haperen, et al., Biochem. Pharmacol., 1994, 48, 1327-39.

P388 leukemia cells = experiment: Antitumor effect in P388 murine leukemia model; type: in vivo; settings: B6D2F1 female mice; intraperitoneal; single doses or daily for 10 consecutive days; all tested doses and schedules
A549 = experiment: Platinum accumulation in DNA (A549); type: cell-based, human; settings: oxaliplatin 200 μM combined with Gemcitabine-5′-elaidate 0.004 μM
Protocol: The effect on DNA platinum accumulation in DNA after exposure to oxaliplatin and oxaliplatin combined with Gemcitabine-5′-elaidate (oxaliplatin [200 μM] combined with Gemcitabine-5′-elaidate [0.004 μM]) is also determined.

human glioma cells U373 [2] = experiment: Antitumor activity in human glioma U373 grown intracerebrally; type: in vivo
Protocol: NMRI male mice are inoculated with human glioma cells U373 intracerebrally. The tumors at the injection site (at the surface of the brain), as well as the intracerebral tumors, are evaluated. Gemcitabine-5′-elaidic acid ester is administered intraperitoneally on Days 4-8, 11-15, 18-22, and 25-29 and is active at 4 mg/kg per injection.

human glioma cells U373 [3] = experiment: Antitumor activity in human glioma xenograft model U373 (subcutaneous); type: in vivo; settings: NCR mice, intraperitoneal
Excerpt: NCR mice are inoculated subcutaneously on Day 0 with human glioma cells U373. Treatment (intraperitoneal) starts on Day 7, either every third day or weekly.

[4] = test system: human colon cancer Co5776; experiment: Antitumor activity in human colon xenograft Co5776; type: in vivo
Protocol: Fragments of human colon cancers Co5776 and Co6044 are implanted subcutaneously in NCR female mice (7-8 mice/group). Gemcitabine (120 mg/kg) and gemcitabine-5′-elaidic acid ester (40 mg/kg) are administered intraperitoneally, every third day for five times.
NCr female mice implanted subcutaneously with human colon carcinoma fragments, Co5776, are treated intraperitoneally. Two different schedules of gemcitabine-5′-elaidic acid ester are administered, once weekly times 2 (Days 11 and 18), and every third day times 5 (Days 11, 14, 17, 20, and 23). Antitumor activity of gemcitabine-5′-elaidic acid ester is similar for 150 mg/kg once weekly, administered twice or 40 mg/kg every third day administered five times.

A549 human NSCLC = experiment: Combination study in vitro, growth inhibition, median effect analysis (A549); type: cell-based
Protocol: The cell lines A549 human NSCLC and WiDr human colon carcinoma are used to determine the combination index and also the effect of Gemcitabine-5′-elaidate on the cell cycle. A sulforhodamine B colorimetric assay is used to determine growth inhibition after 72 hours. Pemetrexed combinations are tested using the MTT assay. Combinations with pemetrexed are also tested in the WiDr-LF cell line, which are WiDr cells cultured under low folate conditions. The IC25 and IC50 values (inhibitory concentrations at 25% or 50%, respectively) are calculated. The IC25 value is used for combinations with serial dilutions of oxaliplatin or docetaxel, and the IC50 value is used for pemetrexed combinations. Median effect analysis is performed.

Co6044 = experiment: Oral activity and schedule dependency in mice with Co6044; type: in vivo, human
Protocol: Oral administration of Gemcitabine-5′-elaidic acid ester and gemcitabine is tested in NCr:nu/nu mice for potential antitumor activity. Treatment is every third day repeated five times. In a follow-up experiment, the antitumor activity of oral and intraperitoneal treatment is compared in this colon cancer model (Co6044). The doses for oral treatment with Gemcitabine-5′-elaidic acid ester and gemcitabine are lower (20, 30, or 40 mg/kg) than in the previous experiment.
In this experiment, the antitumor activity of oral Gemcitabine-5′-elaidic acid ester in three different administration schedules is compared: every 3 days times 5, daily times 5, and once weekly times 2. Three doses are tested per schedule.

[5] = 72 hours, sulforhodamine B assay

## CCCCCCCC/C=C/CCCCCCCC(=O)OC[C@H]1O[C@@H](n2ccc(N)nc2=O)C(F)(F)[C@@H]1O [gemcitabine-5′-elaidic acid ester]
[1]; 60 and 120 minutes in drug-free medium
  retention of dFdC-TP concentration after washing away the drugs: retained at a similar level
[1]; hENT inhibited by dipyridamole
  effect of dipyridamole on dFdC-TP accumulation: even increased the concentration of triphosphates
P388 leukemia cells
  antitumor activity: significant antitumor activity
A549
  platinum adducts in DNA, oxaliplatin combined vs oxaliplatin alone: but not in A549
Human glioma cells U373 [2]; NMRI male mice, U373 intracerebrally, intraperitoneally Days 4-8, 11-15, 18-22, 25-29, 4 mg/kg per injection
  antitumor activity: active
Human glioma cells U373 [2]; after intraperitoneal administration
  activity intracerebrally: active intracerebrally
Human glioma cells U373 [3]; dosed Days 7 and 14 (weekly)
  antitumor effect compared with gemcitabine: better than that of gemcitabine
Human glioma cells U373 [3]; every third day schedule from Day 7
  antitumor effect compared with gemcitabine: equal to gemcitabine
[4]; 40 mg/kg vs gemcitabine 120 mg/kg, intraperitoneally every third day five times
  activity compared with gemcitabine: similar
[4]; NCR female mice, intraperitoneally every third day five times, gemcitabine 120 mg/kg, gemcitabine-5′-elaidic acid ester 40 mg/kg
  antitumor effect: Significant antitumor effect
[4]; NCr female mice, intraperitoneal, 150 mg/kg once weekly times 2 vs 40 mg/kg every third day times 5
  antitumor activity, comparison of schedules: similar
A549 human NSCLC; [5]
  combination effect with docetaxel: antagonistic
  combination effect with oxaliplatin: synergistic
A549 human NSCLC; MTT assay
  combination effect with pemetrexed: Antagonistic activity
Co6044; every 3 days times 5, daily times 5, once weekly times 2, all tested schedules
  antitumor activity: High antitumor activity
Co6044; three doses per schedule
  dose dependence of activity: dose dependent
